# In US20250002967A1, “METHODS FOR DETECTING MICROORGANISMS BY ADDING A FLUORESCENT DYE DIRECTLY TO THE SOLID GROWTH MEDIUM” (DIAMIDEX, priority 2021, published 2025):
# Legend:
# [1] = tested on: Aspergillus brasiliensis ATCC® 16404™; experiment: Enumeration of colonies using the method of the invention; assay type: cell-based; settings: A. brasiliensis; SDA agar; 35° C.; microcolony count
# [2] = tested on: Escherichia coli ATCC® 8739™; experiment: as above; assay type: cell-based; settings: E. coli; TSA agar; 35° C.; microcolony count
# [3] = tested on: Candida albicans ATCC® 10231™; experiment: as above; assay type: cell-based; settings: C. albicans; SDA agar; 35° C.; microcolony count
# [4] = tested on: P. mirabilis ATCC® 29906™; experiment: Enumeration of bacteria implicated in uncomplicated and complicated UTI; assay type: cell-based, Proteus mirabilis; settings: black MCE membrane
# [5] = tested on: E. coli ATCC®8739™; experiment: as above; assay type: cell-based, Escherichia coli; settings: black MCE membrane; for Time detection (minimal timing necessary to enumerate microcolonies): 37° C.
# [6] = tested on: K. pneumoniae ATCC® 13883™; experiment: as above; assay type: cell-based, Klebsiella pneumoniae; settings: black MCE membrane; for Time detection (minimal timing necessary to enumerate microcolonies): 37° C.
# [7] = tested on: S. aureus ATCC® 6538™; experiment: as above; assay type: cell-based, Staphylococcus aureus; settings: black MCE membrane
# [8] = tested on: E. faecalis ATCC® 19433™; experiment: as above; assay type: cell-based, Enterococcus faecalis; settings: black MCE membrane
Structure (SMILES),Counting Scan at 17 h on MCE membrane with fluorochrome [1],Counting Scan at 17 h on PVDF membrane with fluorochrome [1],Counting Scan at 17 h on MCE membrane with fluorochrome [2],Counting Scan at 17 h on PVDF membrane with fluorochrome [2],Counting Scan at 17 h on MCE membrane with fluorochrome [3],Counting Scan at 17 h on PVDF membrane with fluorochrome [3],further results
"Cc1c(CC(=O)ON2C(=O)CCC2=O)c(=O)oc2cc(N)c(S(=O)(=O)O)cc12 [AF350-NHS Ester, 7-amino-3-[2-(2,5-dioxopyrrolidin-1-yl)oxy-2-oxoethyl]-4-methyl-2-oxochromene-6-sulfonic acid]",25,19,109,107,9,20,
"Cc1ccc2n1[B-](F)(F)[N+]1=C(CCCCCCCCCCCC(=O)O)C=CC1=C2 [BODIPY 500/510, 12-(2,2-difluoro-12-methyl-1-aza-3-azonia-2-boranuidatricyclo[7.3.0.03,7]dodeca-3,5,7,9,11-pentaen-4-yl)dodecanoic acid]",,,,112,,,
"N=C(N)c1ccc(-c2cc3ccc(C(=N)N)cc3[nH]2)cc1 [DAPI, 4′,6-diamidino-2-phenylindole]",,,,,,,"percentage of detected objects compared to standard procedure timing (24 h at 37° C.) ([4]; Columbia Blood): (94%); percentage of detected objects compared to standard procedure timing (24 h at 37° C.) ([4]; TSA): (98%); Time detection (minimal timing necessary to enumerate microcolonies) ([4]; TSA, 37° C.): 10 h; percentage of detected objects compared to standard procedure timing (24 h at 37° C.) ([5]; Columbia Blood): (100%); percentage of detected objects compared to standard procedure timing (24 h at 37° C.) ([5]; MacConkey): (98%); Time detection (minimal timing necessary to enumerate microcolonies) ([5]; MacConkey): 10 h; percentage of detected objects compared to standard procedure timing (24 h at 37° C.) ([5]; TSA): (100%); Time detection (minimal timing necessary to enumerate microcolonies) ([5]; TSA): 6 h; percentage of detected objects compared to standard procedure timing (24 h at 37° C.) ([6]; K. pneumonia, Columbia Blood): (100%); percentage of detected objects compared to standard procedure timing (24 h at 37° C.) ([6]; K. pneumonia, TSA): (100%); Time detection (minimal timing necessary to enumerate microcolonies) ([6]; K. pneumonia, Columbia Blood): 10 h; Time detection (minimal timing necessary to enumerate microcolonies) ([6]; K. pneumonia, TSA): 10 h; percentage of detected objects compared to standard procedure timing (24 h at 37° C.) ([6]; K. pneumoniae, MacConkey): (100%); Time detection (minimal timing necessary to enumerate microcolonies) ([6]; K. pneumoniae, MacConkey): 11 h; percentage of detected objects compared to standard procedure timing (24 h at 37° C.) ([7]; Columbia Blood): (100%); percentage of detected objects compared to standard procedure timing (24 h at 37° C.) ([7]; TSA): (100%); Time detection (minimal timing necessary to enumerate microcolonies) ([7]; TSA, 37° C.): 8 h; percentage of detected objects compared to standard procedure timing (24 h at 37° C.) ([8]; Columbia Blood): (100%); percentage of detected objects compared to standard procedure timing (24 h at 37° C.) ([8]; TSA): (100%); Time detection (minimal timing necessary to enumerate microcolonies) ([8]; TSA, 37° C.): 7 h"
"CN(C)CCNc1ccc(O)c2c1C(=O)c1c(O)ccc(NCCN(C)C)c1C2=O [DRAQ5, 1,5-bis (2-(di-methylamino)ethylamino)-4,8-dihydroxyanthracene-9,10-dione]",,,185,162,,,
"CCC(=O)c1ccc2cc(N(C)C)ccc2c1 [Prodan, 6-propionyl-2-dimethyaminonaphthalene]",,6,118,126,11,17,
CC[N+]1=C(C=CC=CC=C2N(CCCCCC(=O)O)c3ccc(S(=O)(=O)O)cc3C2(C)C)C(C)(C)c2cc(S(=O)(=O)[O-])ccc21 [Sulfo-Cy5-Acid],25,34,114,120,13,13,
